The source of these data is patent publication US10717090B2, “Depression of copper and iron sulfides in molybdenite flotation circuits” (TESSENDERLO KERLEY, INC., priority 2014, dated 2020).

One data set has as its system mammals. Conditions: cited from earlier work.
Data set [1] in a line: H2S evolution vs. pH in simulated flotation process (headspace analysis). The data set is classed as physicochemical. Conditions: pH adjusted to between 9 and 9.5, ambient temperature. How it is done: The H2S evolution due to the decomposition of depressant reagents during storage, handling and application presents the highest associated hazard with regards to health and safety (HSE). Testing of TKI's Alkaline Polysulfide products against the standard (NaHS reagent) was conducted in a simulated flotation process using lab apparatus to determine the amount of H2S evolved at various pH's. The tests were conducted using the following testing protocol; • All tests were ran at ambient temperatures using tap water. Add 500 ml of tap water to […] glass apparatus, check pH and temp, start and maintain stirring throughout test. • Add Ca(OH)2 to raise pH to approximately 10.5 • Add 5 mL of reagent. • Allow to stabilize for 2 min, with cracking of stopper to equilibrate at 1 min. • Check pH, temperature and H2S in VP using analyzer. • Add H2SO4 to decrease pH to ˜9. • Allow to stabilize for 2 min, with cracking of stopper to equilibrate at 1 min. • Check pH, temperature and H2S in VP using analyzer. • Repeat last three Steps for pH 9, 8 and 7 if applicable.
Note the H2S in the vapor phase above the polysulfide samples increased to 1500 ppm at pH near 8.2, while this 1500 ppm level was reached by NaHS samples at pH 9.1 to 9.3. […] This would translate into a less hazardous environment in applications where the process is run ran at lower pH's (˜9) utilizing for example CO2 as a flotation medium or modifying agent.
Values above 1500 ppm are lower limits, as the H2S meter maximum reading was 2000 PPM. […] Therefore, this invention may show significant health and safety benefits even at pH near 8.

Turning to Calcium Polysulfide [CaPS], in the data set on mammals, the LD50 entry is reported as “about 0.8 grams per kilogram of body weight”. The “H2S in vapor phase” value in data set [1] is “remained low”.

Potassium Polysulfide [KPS]: the “H2S in vapor phase” value in data set [1] is “presumably KPS remained low”.

Consider `S` [NaHS, Sodium hydrosulfide, reference compound], for which, in data set [1], the “H2S in vapor phase” value is recorded as 1500 ppm.

As to Sodium Polysulfide [NaPS], the “H2S in vapor phase” value in data set [1] was “remained low”.
